Assay: xn = mol fraction of the nth substance listed
Details: 100.5 kPa, Liquid; for viscosity: Capillary tube (Ostwald / Ubbelohde) method

COC(=O)c1ccccc1 [methyl benzoate] + CCO
Details	mass density, 288.15 K [kg/m3]	mass density, 298.15 K [kg/m3]	mass density, 308.15 K [kg/m3]	mass density, 318.15 K [kg/m3]	viscosity, 288.15 K [mPa·s]	viscosity, 298.15 K [mPa·s]	viscosity, 308.15 K [mPa·s]	viscosity, 318.15 K [mPa·s]
x1 = 0.05	825.66	816.86	807.97	798.9	1.324	1.092	0.911	0.766
x1 = 0.1	853.88	844.92	835.86	826.58	1.323	1.094	0.915	0.77
x1 = 0.15	879.1	869.96	860.69	851.28	1.338	1.107	0.924	0.782
x1 = 0.2	901.63	892.4	883.02	873.48	1.359	1.122	0.94	0.797
x1 = 0.25	922.04	912.73	903.27	893.66	1.383	1.144	0.958	0.814
x1 = 0.3	940.62	931.27	921.76	912.06	1.417	1.171	0.981	0.834
x1 = 0.35	957.58	948.19	938.63	928.88	1.455	1.199	1.006	0.855
x1 = 0.4	973.15	963.7	954.11	944.3	1.496	1.232	1.031	0.877
x1 = 0.45	987.48	978.01	968.36	958.52	1.541	1.266	1.061	0.902
x1 = 0.5	1000.69	991.23	981.53	971.68	1.589	1.303	1.091	0.928
x1 = 0.55	1012.94	1003.42	993.75	983.88	1.64	1.341	1.123	0.954
x1 = 0.6	1024.33	1014.81	1005.11	995.26	1.692	1.384	1.158	0.982
x1 = 0.65	1034.94	1025.44	1015.73	1005.87	1.746	1.429	1.193	1.014
x1 = 0.7	1044.83	1035.36	1025.64	1015.8	1.807	1.475	1.231	1.047
x1 = 0.75	1054.13	1044.67	1034.95	1025.13	1.87	1.526	1.275	1.083
x1 = 0.8	1062.88	1053.41	1043.73	1033.93	1.942	1.581	1.318	1.122
x1 = 0.85	1071.11	1061.7	1052.04	1042.24	2.03	1.645	1.369	1.166
x1 = 0.9	1078.93	1069.53	1059.87	1050.1	2.118	1.712	1.421	1.208
x1 = 0.95	1086.31	1076.94	1067.3	1057.55	2.207	1.784	1.48	1.255
x1 = 1	1093.23	1083.92	1074.34	1064.62	2.297	1.851	1.531	1.297
